Data: patent publication US20160095843A1, “PYRAZOLOPYRROLIDINE DERIVATIVES AND THEIR USE IN THE TREATMENT OF DISEASE” (NOVARTIS AG, priority 2013, published 2016)

Legend:
K-562 cells = test: Cell growth inhibition assay (CellTiter-Glo), K-562; format: cell-based, human; details: Homo sapiens, K562
Procedure: (§1) Cell Growth Inhibition Assay
(§2) The human leukemia cell lines MV-4-11, THP-1 and K-562 were employed to characterize the effect of BET inhibitors on cellular proliferation and viability. Cells were obtained from the American Type Culture Collection (ATCC) and cultured at 37° C. in a humidified 5% CO2 incubator in the following media: MV-4-11: DMEM high glucose (Animed #1-26F01-I), 10% FCS (Animed #2-01F26-I), 4 mM L-Glutamine (Animed #5-10K50), 1 mM Sodium Pyruvate (Animed # G03625P), 1× Penicillin-Streptomycin (Animed # F12478P); K-562: Iscove's MEM (Animed #1-28F16-I), 10% FCS (Animed #2-01F26-I), 4 mM L-Glutamine (Animed #5-10K50), 1× Penicillin-Streptomycin (Animed # F12478P); THP-1: RPMI-1640 (Animed #1-41F01-I), 10% FCS (Animed #2-01F26-I), 2 mM L-Glutamine (Animed #5-10K50), 10 mM HEPES (Animed #5-31F100), 1 mM Sodium Pyruvate (Animed # G03625P), 1× Penicillin-Streptomycin (Animed # F12478P). The AML lines MV-4-11 and THP-1 are very sensitive to BET inhibitors and show massive cell death upon BET inhibition (Zuber et al., Nature, 478 (2011), 524-8). Compound-mediated suppression of cell proliferation/viability was assessed by quantification of cellular ATP levels using the CellTiter-Glo (CTG) reagent (Promega). Briefly, cells were seeded in 20 μl fresh medium into 384-well plates, followed by addition of 5 μL medium containing compound dilutions at 5-fold their final intended concentration. Dose-response effects were assessed by 3-fold serial dilutions of the test compound, starting at 10 μM. Following incubation of the cells for 4 days at 37° C. and 5% CO2, the effect of inhibitors on cell viability was quantified following addition of 20 μl CTG and luminescence quantification (integration time: 100 ms) as per vendor manual, using a correspondingly equipped Tecan M200 multi-mode platereader (TECAN, Switzerland). For data analysis, the assay background value determined in wells containing medium, but no cells, was subtracted from all data points. To enable differentiation of cytotoxic from cytostatic compounds, the number of viable cells is assessed relative to that observed at the time of compound addition using a separate cell plate (day 0). The effect of a particular test compound concentration on cell proliferation/viability is expressed as percentage of the background- and day 0-corrected luminescence reading obtained for cells treated with vehicle only (DMSO, 0.1% final concentration), which is set as 100%, whereas that luminescence reading for wells containing medium is set as −100%. Compound concentrations leading to half-maximal (1050) and total growth inhibition (TGI) were determined using standard four parameter curve fitting.

THP-1 cells = test: Cell growth inhibition assay (CellTiter-Glo), THP-1; format: cell-based; details: Homo sapiens
Procedure: as §1, §2

MV-4-11 cells = test: Cell growth inhibition assay (CellTiter-Glo), MV-4-11; format: cell-based; details: Homo sapiens, MV4-11
Procedure: as §1, §2

Structure (SMILES) | GI50 (K-562 cells) | GI50 (THP-1 cells) | GI50 (MV-4-11 cells)
CCOc1c2c(nn1C)C(=O)N(c1cc(C)c(=O)n(C)c1)C2c1ccc(Cl)cc1 (stereo not drawn) [Example 76, 4-(4-chlorophenyl)-5-(1,5-dimethyl-6-oxo-1,6-dihydropyridin-3-yl)-3-ethoxy-2-methyl-4,5-dihydropyrrolo-[3,4-c]pyrazol-6(2H)-one] | 339 nM | 140 nM | 53.2 nM
COc1c2c(nn1C)C(=O)N(c1cc(C)c(=O)n(C)c1)C2c1ccc(Cl)cc1 (stereo not drawn) [Example 77, 4-(4-chlorophenyl)-5-(1,5-dimethyl-6-oxo-1,6-dihydropyridin-3-yl)-3-methoxy-2-methyl-4,5-dihydropyrrolo-[3,4-c]pyrazol-6(2H)-one] | 569 nM | 178 nM | 88.8 nM
CCc1nn(CCO)c2c1C(c1ccc(Cl)cc1)N(c1cc(C)c(=O)n(C)c1)C2=O (stereo not drawn) [Example 78, 4-(4-chlorophenyl)-5-(1,5-dimethyl-6-oxo-1,6-dihydropyridin-3-yl)-3-ethyl-1-(2-hydroxyethyl)-4,5-dihydropyrrolo-[3,4-c]pyrazol-6(1H)-one] | 392 nM | 85.4 nM | 52 nM
CCc1nn(CCO)c2c1C(c1ccc(Cl)cc1)N(c1cc(C)c3onc(C)c3c1)C2=O (stereo not drawn) [Example 79, 4-(4-chlorophenyl)-5-(3,7-dimethylbenzo[d]isoxazol-5-yl)-3-ethyl-1-(2-hydroxyethyl)-4,5-dihydropyrrolo-[3,4-c]pyrazol-6(1H)-one] | 920 nM | 255 nM | 348 nM
CCc1c2c(nn1CCO)C(=O)N(c1cc(C)c3onc(C)c3c1)C2c1ccc(Cl)cc1 (stereo not drawn) [Example 80, 4-(4-chlorophenyl)-5-(3,7-dimethylbenzo[d]isoxazol-5-yl)-3-ethyl-2-(2-hydroxyethyl)-4,5-dihydropyrrolo[3,4-c]pyrazol-6(2H)-one] | 868 nM | 354 nM | 356 nM
Cc1ncccc1-n1nc2c(c1C)C(c1ccc(Cl)cc1)N(c1cc(C)c(=O)n(C)c1)C2=O (stereo not drawn) [Example 81, 4-(4-chlorophenyl)-5-(1,5-dimethyl-6-oxo-1,6-dihydropyridin-3-yl)-3-methyl-2-(2-methylpyridin-3-yl)-4,5-dihydropyrrolo-[3,4-c]pyrazol-6(2H)-one] | 883 nM | 261 nM | 95.6 nM
Cc1ncccc1-n1nc(C)c2c1C(=O)N(c1cc(C)c(=O)n(C)c1)C2c1ccc(Cl)cc1 (stereo not drawn) [Example 82, 4-(4-chlorophenyl)-5-(1,5-dimethyl-6-oxo-1,6-dihydropyridin-3-yl)-3-methyl-1-(2-methylpyridin-3-yl)-4,5-dihydropyrrolo[3,4-c]pyrazol-6(1H)-one] | 920 nM | 222 nM | 94.8 nM
Cc1nn(-c2cncn2C)c2c1C(c1ccc(Cl)cc1)N(c1cc(C)c(=O)n(C)c1)C2=O (stereo not drawn) [Example 83, 4-(4-chlorophenyl)-5-(1,5-dimethyl-6-oxo-1,6-dihydropyridin-3-yl)-3-methyl-1-(1-methyl-1H-imidazol-5-yl)-4,5-dihydropyrrolo[3,4-c]pyrazol-6(1H)-one] | 719 nM | 164 nM | 100 nM
CCc1nn(C2CC2)c2c1C(c1ccc(Cl)cc1)N(c1cc(OC)c3nnc(C)n3c1)C2=O (stereo not drawn) [Example 84, 4-(4-chlorophenyl)-1-cyclopropyl-3-ethyl-5-(8-methoxy-3-methyl-[1,2,4]triazolo[4,3-a]pyridin-6-yl)-4,5-dihydropyrrolo-[3,4-c]pyrazol-6(1H)-one] | 384 nM | 86.9 nM | 58.3 nM
CCc1nn(CCOC)c2c1C(c1ccc(Cl)cc1)N(c1cc(C)c(=O)n(C)c1)C2=O (stereo not drawn) [Example 86, 4-(4-chlorophenyl)-5-(1,5-dimethyl-6-oxo-1,6-dihydropyridin-3-yl)-3-ethyl-1-(2-methoxyethyl)-4,5-dihydropyrrolo[3,4-c]pyrazol-6(1H)-one] | 229 nM | 63.8 nM | 34.6 nM
CCc1nn(CCOC)c2c1C(c1ccc(Cl)cc1)N(c1cc(C)c3nnc(C)n3c1)C2=O (stereo not drawn) [Example 87, 4-(4-chlorophenyl)-5-(3,8-dimethyl-[1,2,4]triazolo[4,3-a]pyridin-6-yl)-3-ethyl-1-(2-methoxyethyl)-4,5-dihydropyrrolo-[3,4-c]pyrazol-6(1H)-one] | 128 nM | 23.5 nM | 16.4 nM
CCc1nn(-c2ccnn2C)c2c1C(c1ccc(Cl)cc1)N(c1cc(C)c(=O)n(C)c1)C2=O (stereo not drawn) [Example 89, 4-(4-chlorophenyl)-5-(1,5-dimethyl-6-oxo-1,6-dihydropyridin-3-yl)-3-ethyl-1-(1-methyl-1H-pyrazol-5-yl)-4,5-dihydropyrrolo-[3,4-c]pyrazol-6(1H)-one] | 442 nM | 40.6 nM | 46.5 nM
Cc1nn(-c2ccnn2C)c2c1C(c1ccc(Cl)cc1)N(c1cc(C)c3nnc(C)n3c1)C2=O (stereo not drawn) [Example 90, 4-(4-chlorophenyl)-5-(3,8-dimethyl-[1,2,4]triazolo[4,3-a]pyridin-6-yl)-3-methyl-1-(1-methyl-1H-pyrazol-5-yl)-4,5-dihydropyrrolo[3,4-c]pyrazol-6(1H)-one] | 276 nM | 51 nM | 25.5 nM
Cc1nn(C2CC2)c2c1C(c1cccc(OC(F)(F)F)c1)N(c1cc(C)c(=O)n(C)c1)C2=O (stereo not drawn) [Example 91, 1-cyclopropyl-5-(1,5-dimethyl-6-oxo-1,6-dihydropyridin-3-yl)-3-methyl-4-(3-(trifluoromethoxy)phenyl)-4,5-dihydropyrrolo-[3,4-c]pyrazol-6(1H)-one] | 2680 nM | 908 nM | 633 nM
Cc1nn(C2CC2)c2c1C(c1ccc(Cl)cc1)N(c1cc(C)c3nnc(C)n3c1)C2=O (stereo not drawn) [Example 92, 4-(4-chlorophenyl)-1-cyclopropyl-5-(3,8-dimethyl-[1,2,4]triazolo[4,3-a]pyridin-6-yl)-3-methyl-4,5-dihydropyrrolo-[3,4-c]pyrazol-6(1H)-one] | 65 nM | 19.2 nM | 10.9 nM
Cc1cc(N2C(=O)c3nn(C4CC4)c(C)c3C2c2ccc(Cl)cc2)cn2c(C)nnc12 (stereo not drawn) [Example 93, 4-(4-chlorophenyl)-2-cyclopropyl-5-(3,8-dimethyl-[1,2,4]triazolo[4,3-a]pyridin-6-yl)-3-methyl-4,5-dihydropyrrolo[3,4-c]pyrazol-6(2H)-one] | 80 nM | 26.4 nM | 13.5 nM
Cc1nn(C2CCC2)c2c1C(c1ccc(Cl)cc1)N(c1cc(C)c(=O)n(C)c1)C2=O (stereo not drawn) [Example 94, 4-(4-chlorophenyl)-1-cyclobutyl-5-(1,5-dimethyl-6-oxo-1,6-dihydropyridin-3-yl)-3-methyl-4,5-dihydropyrrolo-[3,4-c]pyrazol-6(1H)-one] | 96.9 nM | 34.4 nM | 19.5 nM
Cc1nn(C2CC2)c2c1C(c1ccc(OC(F)(F)F)cc1)N(c1cc(C)c(=O)n(C)c1)C2=O (stereo not drawn) [Example 95, 1-cyclopropyl-5-(1,5-dimethyl-6-oxo-1,6-dihydropyridin-3-yl)-3-methyl-4-(4-(trifluoromethoxy)phenyl)-4,5-dihydropyrrolo-[3,4-c]pyrazol-6(1H)-one] | 868 nM | 245 nM | 140 nM
